Laboratory results taken from patent publication US8962687B2, “Method of treating liver disorders” (priority 2012, dated 2015).
“Also recorded” adds a separate entry of the source.

Legend:
Type in all cases: in vivo, C57BL/6 mice
CCR2 mRNA = assay: Quantitative RT-PCR of liver, CCR2; settings: relative, mean±SD
Procedure: (§1) Total RNA was extracted from liver samples using RNAiso (Takara Bio, Japan) according to the manufacturer's instructions. One μg of RNA was reverse-transcribed using a reaction mixture containing 4.4 mM MgCl2 (Roche, Switzerland), 40 U RNase inhibitor (Toyobo, Japan), 0.5 mM dNTP (Promega, USA), 6.28 μM random hexamer (Promega), 5× first strand buffer (Promega), 10 mM dithiothreitol (Invitrogen) and 200 U MMLV-RT (Invitrogen) in a final volume of 20 μL. The reaction was carried out for 1 hour at 37° C., followed by 5 minutes at 99° C. Real-time PCR was performed using real-time PCR DICE and SYBR premix Taq (Takara Bio). To calculate the relative mRNA expression level, the expression of each gene was normalized to that of reference gene 36B4 (gene symbol: Rp1p0). Information of PCR-primer sets and the plate layout was described in Table 1.

STAM mice [1] = assay: Alpha-SMA immunostaining in STAM model; settings: mean±SD
Procedure: (§2) For immunohistochemistry, sections were cut from frozen left lateral liver tissues embedded in Tissue-Tek O.C.T. compound and fixed in acetone. Endogenous peroxidase activity was blocked using 0.03% H2O2 for 5 minutes, followed by incubation with Block Ace (Dainippon Sumitomo Pharma, Japan) for 10 minutes. The sections were incubated with a 200-fold dilution of anti-α-SMA (Epitomics, USA) or anti-F4/80 antibody (BMA Biomedicals, Switzerland) 1 hour at room temperature. […] For quantitative analysis of fibrosis area, inflammation area, and semi-quantification of α-SMA, bright field images of Sirius red-stained, F4/80 and α-SMA-immunostained sections were captured around the central vein using a digital camera (DFC280; Leica, Germany) at 200-fold magnification, and the positive areas in 5 fields/section were measured using ImageJ software (National Institute of Health, USA).

STAM mice [2] = assay: HE staining and NAFLD Activity Score (NAS) in STAM model of NASH; parameters: key to NAS (mean ± SD): NAFLD Activity Score per Kleiner et al. 2005 criteria; settings: for Hepatocyte ballooning score 0, number of mice: score 0 = None; for Steatosis score 1, number of mice: score 1 = 5-33%; for Lobular inflammation score 1, number of mice: score 1 = <2 foci/200x; for Hepatocyte ballooning score 1, number of mice: score 1 = Few balloon cells; for Lobular inflammation score 2, number of mice: score 2 = 2-4 foci/200x; for Hepatocyte ballooning score 2, number of mice: score 2 = Many cells/prominent ballooning
Procedure: STAM™ is a model for non-alcoholic steatohepatitis (NASH), symtoms thereof, and related liver disorders, created by the combination of chemical and dietary interventions in C57BL/6 mice. […] For HE staining, sections were cut from paraffin blocks of left lateral liver tissue prefixed in Bouin's solution and stained with Lillie-Mayer's Hematoxylin (Muto Pure Chemicals, Japan) and eosin solution (Wako Pure Chemical Industries). NAS was calculated according to the criteria of Kleiner (Kleiner D E. et al., Hepatology, 2005; 41:1313). To visualize collagen deposition, Bouin's fixed left lateral liver sections were stained using picro-Sirius red solution (Waldeck, Germany).

TIMP-1 mRNA = assay: Quantitative RT-PCR of liver, TIMP-1; settings: relative, mean±SD
Procedure: as §1

TNF-α mRNA = assay: Quantitative RT-PCR of liver, TNF-α; settings: relative, mean±SD
Procedure: as §1

STAM mice [3] = assay: Whole blood glucose and plasma ALT/AST in STAM model; settings: mean±SD; for Whole blood glucose: non-fasting
Procedure: Non-fasting blood glucose was measured in whole blood using […], Japan). For plasma biochemistry, blood was collected in polypropylene tubes with anticoagulant (Novo-Heparin, Mochida Pharmaceutical, Japan) and centrifuged at 1,000×g for 15 minutes at 4° C. The supernatant was collected and stored at -80° until use. Plasma ALT and AST levels were measured by FUJI DRI-CHEM 7000 (Fujifilm, Japan).

STAM mice [4] = assay: F4/80 immunostaining, inflammation area in STAM model; settings: mean±SD
Procedure: as §2

STAM mice [5] = assay: Sirius red staining, fibrosis area in STAM model; settings: for fibrosis area (Sirius red-positive area): mean±SD
Procedure: For HE staining, sections were cut from paraffin blocks of left lateral liver tissue prefixed in Bouin's solution and stained with Lillie-Mayer's Hematoxylin (Muto Pure Chemicals, Japan) and eosin solution (Wako Pure Chemical Industries). NAS was calculated according to the criteria of Kleiner (Kleiner D E. et al., Hepatology, 2005; 41:1313). To visualize collagen deposition, Bouin's fixed left lateral liver sections were stained using picro-Sirius red solution (Waldeck, Germany). For quantitative analysis of fibrosis area, inflammation area, and semi-quantification of α-SMA, bright field images of Sirius red-stained, F4/80 and α-SMA-immunostained sections were captured around the central vein using a digital camera (DFC280; Leica, Germany) at 200-fold magnification, and the positive areas in 5 fields/section were measured using ImageJ software (National Institute of Health, USA).

STAM mice [6] = assay: Liver weight and liver-to-body weight ratio in STAM model; settings: mean±SD
Procedure: NASH was induced in 50 male mice by a single subcutaneous injection of 200 μg streptozotocin (STZ, Sigma-Aldrich, USA) solution 2 days after birth and feeding with high fat diet (HFD, 57 kcal % fat, cat#: HFD32, CLEA Japan, Japan) after 4 weeks of age. Ten male littermates, fed with normal diet and without STZ treatment, were used for the normal group. Vehicle, MN-001, and Telmisartan were administered by oral route in a volume of 10 mL/kg. MN-001 was administered at doses of 10, 30, and 100 mg/kg once daily. Telmisartan was administered at dose of 10 mg/kg once daily.

Alpha-SMA mRNA = assay: Quantitative RT-PCR of liver, Alpha-SMA; settings: relative, mean±SD
Procedure: as §1

MCP-1 mRNA = assay: Quantitative RT-PCR of liver, MCP-1; settings: relative, normalized to 36B4, 30 mg/kg oral once daily, 6-9 wks (MN-001-middle group), mean±SD
Procedure: as §1

STAM mice [7] = assay: Liver hydroxyproline content in STAM model; settings: mean±SD
Procedure: To quantify liver hydroxyproline content, frozen liver samples (32-40 mg) were processed by an alkaline-acid hydrolysis method as follows. Liver samples were defatted with 100% acetone, dried in the air, dissolved in 2N NaOH at 65° C., and autoclaved at 121° C. for 20 minutes. The lysed samples (400 μL) were acid-hydrolyzed with 400 μL of 6N HCl at 121° C. for 20 minutes, and neutralized with 400 μL of 4N NaOH containing 10 mg/mL activated carbon. AC buffer (2.2M acetic acid/0.48M citric acid, 400 μL) was added to the samples, followed by centrifugation to collect the supernatant. A standard curve of hydroxyproline was constructed with serial dilutions of trans-4-hydroxy-L-proline (Sigma-Aldrich) starting at 16 μg/mL. The prepared samples and standards (each 400 μL) were mixed with 400 μL chloramine T solution (Wako Pure Chemical Industries) and incubated for 25 minutes at room temperature. […] After samples were cooled on ice and centrifuged to remove precipitates, the optical density of each supernatant was measured at 560 nm. The concentrations of hydroxyproline were calculated from the hydroxyproline standard curve. Protein concentrations of liver samples were determined using a BCA protein assay kit (Thermo Fisher Scientific, USA) and used to normalize the calculated hydroxyproline values. Liver hydroxyproline levels were expressed as μg per mg protein.

[8] = normalized to 36B4, 10 mg/kg oral once daily, 6-9 wks (MN-001-low; Telmisartan groups)
[9] = 10 mg/kg oral once daily, 6-9 wks of age (MN-001-low; Telmisartan groups)
[10] = 10 mg/kg oral once daily, 6-9 wks, n 10
[11] = normalized to 36B4, 100 mg/kg oral once daily, 6-9 wks (MN-001-high group)
[12] = 30 mg/kg oral once daily, 6-9 wks of age (MN-001-middle group)
[13] = 100 mg/kg oral once daily, 6-9 wks of age (MN-001-high group)
[14] = 30 mg/kg oral once daily, 6-9 wks, n 10
[15] = 100 mg/kg oral once daily, 6-9 wks, n 10
[16] = normalized to 36B4, 30 mg/kg oral once daily, 6-9 wks (MN-001-middle group)

CCCc1nc2c(C)cc(-c3nc4ccccc4n3C)cc2n1Cc1ccc(-c2ccccc2C(=O)O)cc1 [Telmisartan, reference compound]
CCR2 mRNA expression levels (CCR2 mRNA; [8]): 3.21±0.85
α-SMA-positive area (STAM mice [1]; [9]): 0.12±0.05%
hepatocellular ballooning, HE-stained liver sections, compared with Vehicle (STAM mice [2]; [9]): marked improvements
inflammatory cell infiltration, HE-stained liver sections, compared with Vehicle (STAM mice [2]; 10 mg/kg oral once daily, 6-9 wks of age (Telmisartan group)): marked improvements
Steatosis score 0, number of mice (STAM mice [2]; 10 mg/kg oral once daily, 6-9 wks, score 0 = <5%, n 10): 1
Hepatocyte ballooning score 0, number of mice (STAM mice [2]; [10]): 4
Steatosis score 1, number of mice (STAM mice [2]; [10]): 9
Lobular inflammation score 1, number of mice (STAM mice [2]; [10]): 10
Hepatocyte ballooning score 1, number of mice (STAM mice [2]; [10]): 6
TIMP-1 mRNA expression levels (TIMP-1 mRNA; [8]): 7.82±2.62
TNF-α mRNA expression levels (TNF-α mRNA; [8]): 8.35±2.84
Plasma AST (STAM mice [3]; [9]): 190±28 U/L

CCCc1c(SCCCOc2ccc(C(C)=O)c(OCCCC(=O)O)c2CCC)ccc(C(C)=O)c1O [MN-001]
CCR2 mRNA expression levels (CCR2 mRNA; [11]): 3.86±1.43
α-SMA-positive area (STAM mice [1]; [12]): 0.11±0.04%
inflammation area (F4/80-positive area) (STAM mice [4]; [12]): 6.33±0.84%
inflammation area (F4/80-positive area) (STAM mice [4]; [13]): 6.31±0.76%
fibrosis area (Sirius red-positive area) (STAM mice [5]; [9]): 0.76±0.19%
fibrosis area (Sirius red-positive area) (STAM mice [5]; [12]): 0.76±0.16%
fibrosis area (Sirius red-positive area) (STAM mice [5]; [13]): 0.69±0.18%
fibrosis area compared with Vehicle (STAM mice [5]; MN-001 treatment groups together (10, 30, 100 mg/kg oral once daily, 6-9 wks), dose dependent manner): significantly reduced; also recorded: significantly decreased
Mean liver weight (STAM mice [6]; [9]): 1567 ± 165 mg
Mean liver weight (STAM mice [6]; [13]): 1480 ± 145 mg
NAS (mean ± SD) (STAM mice [2]; [9]): 4.7±0.5
hepatocellular ballooning, HE-stained liver sections, compared with Vehicle (STAM mice [2]; [9]): moderate decrease
Steatosis score 1, number of mice (STAM mice [2]; [10]): 10
Lobular inflammation score 1, number of mice (STAM mice [2]; [10]): 1
Hepatocyte ballooning score 1, number of mice (STAM mice [2]; [10]): 2
Lobular inflammation score 2, number of mice (STAM mice [2]; [10]): 9
Hepatocyte ballooning score 2, number of mice (STAM mice [2]; [10]): 8
NAS (mean ± SD) (STAM mice [2]; [12]): 4.7±0.5
hepatocellular ballooning, HE-stained liver sections, compared with Vehicle (STAM mice [2]; [12]): moderate decrease
Steatosis score 1, number of mice (STAM mice [2]; [14]): 10
Hepatocyte ballooning score 1, number of mice (STAM mice [2]; [14]): 3
Lobular inflammation score 2, number of mice (STAM mice [2]; [14]): 10
Hepatocyte ballooning score 2, number of mice (STAM mice [2]; [14]): 7
hepatocellular ballooning, HE-stained liver sections / ballooning score, compared with Vehicle (STAM mice [2]; [13]): significantly reduced; also recorded: marked improvements
inflammatory cell infiltration, HE-stained liver sections, compared with Vehicle (STAM mice [2]; [13]): moderate improvements
Lobular inflammation score 0, number of mice (STAM mice [2]; 100 mg/kg oral once daily, 6-9 wks, score 0 = No foci, n 10): 1
Hepatocyte ballooning score 0, number of mice (STAM mice [2]; [15]): 2
Steatosis score 1, number of mice (STAM mice [2]; [15]): 10
Lobular inflammation score 1, number of mice (STAM mice [2]; [15]): 4
Hepatocyte ballooning score 1, number of mice (STAM mice [2]; [15]): 7
Lobular inflammation score 2, number of mice (STAM mice [2]; [15]): 5
Hepatocyte ballooning score 2, number of mice (STAM mice [2]; [15]): 1
TIMP-1 mRNA expression levels (TIMP-1 mRNA; [11]): 10.6±5.83
TNF-α mRNA expression levels (TNF-α mRNA; [8]): 3.42±2.53
TNF-α mRNA expression levels (TNF-α mRNA; [16]): 7.97±9.30
TNF-α mRNA expression levels (TNF-α mRNA; [11]): 9.74±3.34
Alpha-SMA mRNA expression levels (Alpha-SMA mRNA; [8]): 36.8±111
Alpha-SMA mRNA expression levels (Alpha-SMA mRNA; [16]): 3.13±2.52
Alpha-SMA mRNA expression levels (Alpha-SMA mRNA; [11]): 5.78±3.45
MCP-1 mRNA expression levels (MCP-1 mRNA): 4.00±7.78
Liver hydroxyproline content (STAM mice [7]; [9]): 0.78±0.34 μg/mg protein
Liver hydroxyproline content (STAM mice [7]; [12]): 0.63±0.12 μg/mg protein
Plasma ALT (STAM mice [3]; [9]): 71±60 U/L
Plasma ALT (STAM mice [3]; [12]): 48±23 U/L
Plasma ALT (STAM mice [3]; [13]): 54±11 U/L
Whole blood glucose (STAM mice [3]; [9]): 614 ± 98 mg/dL
Whole blood glucose (STAM mice [3]; [12]): 609 ± 78 mg/dL
Whole blood glucose (STAM mice [3]; [13]): 671 ± 124 mg/dL
